Laboratory results from patent US8946438B2, “Benzamides, production thereof, and use thereof as medicaments” (Boehringer Ingelheim International GmbH, priority 2008, dated 2015).

Target: p38 MAP-kinase (Homo sapiens, UniProt Q16539)
Test: Enzymatic assay: inhibition of p38 MAP-kinase (phosphorylation of GST-tagged ATF2, chemoluminescence bead readout)
Format: biochemical
Conditions: inhibitor 1 μM; activated p38 MAP-kinase 1 nM; 4 h preincubation; ATP 100 μM; ATF2 10 nM; read-out: % inhibitory effect at 1 μM
Summary of the method: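 Activated human p38 MAP-kinase (1 nM) preincubated 4 h at ambient temperature with compound at 1 μM in HEPES pH 7, MgCl2, DTT, Tween20. Then reacted 1 h with GST-ATF2 (10 nM) and ATP (100 μM). Phospho-ATF2 read by bead chemoluminescence at 520-620 nm, given as % inhibition at 1 μM versus kinase-free background.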

Chain of p38 MAP-kinase (Q16539 whole entry): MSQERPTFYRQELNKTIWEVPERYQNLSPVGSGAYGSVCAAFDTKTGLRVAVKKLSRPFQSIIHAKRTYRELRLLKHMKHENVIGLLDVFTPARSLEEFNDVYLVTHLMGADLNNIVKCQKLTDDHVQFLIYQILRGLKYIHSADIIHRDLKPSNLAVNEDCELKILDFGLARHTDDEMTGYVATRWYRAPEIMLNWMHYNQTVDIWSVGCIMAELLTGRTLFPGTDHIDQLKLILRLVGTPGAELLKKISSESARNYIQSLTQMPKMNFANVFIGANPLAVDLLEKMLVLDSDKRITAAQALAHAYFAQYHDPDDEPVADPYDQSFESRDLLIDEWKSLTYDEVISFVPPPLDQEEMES

SMILES	inhibition at 1 µM
COc1c(NC(=O)c2ccc(C)c(Oc3ccnc(CC4CCNCC4)c3)c2)cc(C(F)(F)C(F)(F)F)cc1NS(C)(=O)=O [5(55), N-(3-methanesulphonylamino-2-methoxy-5-pentafluoroethyl-phenyl)-4-methyl-3-(2-piperidin-4-ylmethyl-pyridin-4-yloxy)-benzamide]	99.6%
COc1c(NC(=O)c2ccc(C)c(Oc3cc(C(=O)N4CCN(C)CC4)ncn3)c2)cc(C(C)(C)C)cc1NS(C)(=O)=O [7(2), N-(5-tert-butyl-3-methanesulphonylamino-2-methoxy-phenyl)-4-methyl-3-[6-(4-methyl-piperazine-1-carbonyl)-pyrimidin-4-yloxy]-benzamide]	96.3%
COc1c(NC(=O)c2cc(F)c(C)c(Oc3ccnc(CN4CCN(C)CC4)n3)c2)cc(C(C)(C)C)cc1NS(C)(=O)=O [7(3), N-(5-tert-butyl-3-methanesulphonylamino-2-methoxy-phenyl)-3-fluoro-4-methyl-5-[2-(4-methyl-piperazin-1-ylmethyl)-pyrimidin-4-yloxy]-benzamide]	98.8%
CNCc1cc(Oc2cc(C(=O)Nc3cc(C(C)(C)C)cc(NS(C)(=O)=O)c3OC)ccc2C)ncn1 [8(1), N-(5-tert-butyl-3-methanesulphonylamino-2-methoxy-phenyl)-4-methyl-3-(6-methylaminomethyl-pyrimidin-4-yloxy)-benzamide]	55.9%
COc1c(NC(=O)c2ccc(C)c(Oc3cc(CN4CCN(C)CC4)ncn3)c2)cc(C(C)(C)C)cc1NS(C)(=O)=O [8(2), N-(5-tert-butyl-3-methanesulphonylamino-2-methoxy-phenyl)-4-methyl-3-[6-(4-methyl-piperazin-1-ylmethyl)-pyrimidin-4-yloxy]-benzamide]	98.7%
CNCc1nccc(Oc2cc(C(=O)Nc3cc(C(C)(C)C)cc(NS(C)(=O)=O)c3OC)ccc2C)n1 [8(4), N-(5-tert-butyl-3-methanesulphonylamino-2-methoxy-phenyl)-4-methyl-3-(2-methylaminomethyl-pyrimidin-4-yloxy)-benzamide]	66%
COc1c(NC(=O)c2ccc(C)c(Oc3ccnc(CN4CCOCC4)c3)c2)cc(C(C)(C)C)cc1NS(C)(=O)=O [8(9), N-(5-tert-butyl-3-methanesulphonylamino-2-methoxy-phenyl)-4-methyl-3-(2-morpholin-4-ylmethyl-pyridin-4-yloxy)-benzamide]	98.4%
COc1c(NC(=O)c2ccc(C)c(Oc3ccnc(CN[C@H]4CCOC4)c3)c2)cc(C(C)(C)C)cc1NS(C)(=O)=O [8(11), (S)-N-(5-tert-butyl-3-methanesulphonylamino-2-methoxy-phenyl)-4-methyl-3-{2-[(tetrahydro-furan-3-ylamino)-methyl]-pyridin-4-yloxy}-benzamide]	96.7%
COc1c(NC(=O)c2ccc(C)c(Oc3ccnc(CN4CC[C@H](O)C4)c3)c2)cc(C(C)(C)C)cc1NS(C)(=O)=O [8(13), (S)-N-(5-tert-butyl-3-methanesulphonylamino-2-methoxy-phenyl)-3-[2-(3-hydroxy-pyrrolidin-1-ylmethyl)-pyridin-4-yloxy]-4-methyl-benzamide]	96.8%
CNCc1cc(Oc2cc(C(=O)Nc3cc(C(C)(C)C)cc(NS(C)(=O)=O)c3OC)ccc2C)ccn1 [8(14), N-(5-tert-butyl-3-methanesulphonylamino-2-methoxy-phenyl)-4-methyl-3-(2-methylaminomethyl-pyridin-4-yloxy)-benzamide]	91.1%
COc1c(NC(=O)c2ccc(C)c(Oc3ccnc(CN[C@@H]4CCOC4)c3)c2)cc(C(C)(C)C)cc1NS(C)(=O)=O [8(15), (R)-N-(5-tert-butyl-3-methanesulphonylamino-2-methoxy-phenyl)-4-methyl-3-{2-[(tetrahydro-furan-3-ylamino)-methyl]-pyridin-4-yloxy}-benzamide]	95.9%
COc1c(NC(=O)c2ccc(C)c(Oc3ccnc(CNC4CCCN(C)C4)n3)c2)cc(C(C)(C)C)cc1NS(C)(=O)=O (stereo not drawn) [8(18), N-(5-tert-butyl-3-methanesulphonylamino-2-methoxy-phenyl)-4-methyl-3-{2-[(1-methyl-piperidin-3-ylamino)-methyl]-pyrimidin-4-yloxy}-benzamide]	98.6%
COc1c(NC(=O)c2ccc(C)c(Oc3ccnc(CN(C)C4CCN(C)C4)n3)c2)cc(C(C)(C)C)cc1NS(C)(=O)=O (stereo not drawn) [8(19), N-(5-tert-butyl-3-methanesulphonylamino-2-methoxy-phenyl)-4-methyl-3-(2-{[methyl-(1-methyl-pyrrolidin-3-yl)-amino]-methyl}-pyrimidin-4-yloxy)-benzamide]	97%
COc1c(NC(=O)c2ccc(C)c(Oc3ccnc(CN4CCCN(C)CC4)c3)c2)cc(C(C)(C)C)cc1NS(C)(=O)=O [8(20), N-(5-tert-butyl-3-methanesulphonylamino-2-methoxy-phenyl)-4-methyl-3-[2-(4-methyl-homopiperazin-1-ylmethyl)-pyridin-4-yloxy]-benzamide]	99.4%
COc1c(NC(=O)c2ccc(C)c(Oc3ccnc(CN4CC[C@H](N(C)C)C4)n3)c2)cc(C(C)(C)C)cc1NS(C)(=O)=O [8(21), (S)-N-(5-tert-butyl-3-methanesulphonylamino-2-methoxy-phenyl)-3-[2-(3-dimethylamino-pyrrolidin-1-ylmethyl)-pyrimidin-4-yloxy]-4-methyl-benzamide]	98.5%

The next lines start with the values.

inhibition at 1 µM	SMILES
97%	COc1c(NC(=O)c2ccc(C)c(Oc3ccnc(CC4CCCNCC4)n3)c2)cc(C(C)(C)C)cc1NS(C)(=O)=O (stereo not drawn) [5(53), 3-(2-azepan-4-ylmethyl-pyrimidin-4-yloxy)-N-(5-tert-butyl-3-methanesulphonylamino-2-methoxy-phenyl)-4-methyl-benzamide]
99.7%	COc1c(NC(=O)c2ccc(C)c(Oc3cc(CC4CCCNCC4)ncn3)c2)cc(C(C)(C)C)cc1NS(C)(=O)=O (stereo not drawn) [5(54), 3-(6-azepan-4-ylmethyl-pyrimidin-4-yloxy)-N-(5-tert-butyl-3-methanesulphonylamino-2-methoxy-phenyl)-4-methyl-benzamide]
98.5%	COc1c(NC(=O)c2cc(Cl)c(C)c(Oc3ccnc(CN4CCN(C)CC4)n3)c2)cc(C(C)(C)C)cc1NS(C)(=O)=O [7(5), N-(5-tert-butyl-3-methanesulphonylamino-2-methoxy-phenyl)-3-chloro-4-methyl-5-[2-(4-methyl-piperazin-1-ylmethyl)-pyrimidin-4-yloxy]-benzamide]
95.2%	COc1c(NC(=O)c2ccc(C)c(Oc3ccnc(CN4CCOCC4)n3)c2)cc(C(C)(C)C)cc1NS(C)(=O)=O [8(3), N-(5-tert-butyl-3-methanesulphonylamino-2-methoxy-phenyl)-4-methyl-3-(2-morpholin-4-ylmethyl-pyrimidin-4-yloxy)-benzamide]
95.8%	COc1c(NC(=O)c2ccc(C)c(Oc3ccnc(CN4CCNC(=O)C4)n3)c2)cc(C(C)(C)C)cc1NS(C)(=O)=O [8(5), N-(5-tert-butyl-3-methanesulphonylamino-2-methoxy-phenyl)-4-methyl-3-[2-(3-oxo-piperazin-1-ylmethyl)-pyrimidin-4-yloxy]-benzamide]
98.7%	COc1c(NC(=O)c2ccc(C)c(Oc3ccnc(CN4CCN(C)CC4)n3)c2)cc(C(C)(C)C)cc1NS(C)(=O)=O [8(6), N-(5-tert-butyl-3-methanesulphonylamino-2-methoxy-phenyl)-4-methyl-3-[2-(4-methyl-piperazin-1-ylmethyl)-pyrimidin-4-yloxy]-benzamide]
94.1%	COc1c(NC(=O)c2ccc(C)c(Oc3cc(CN4CCNC(=O)C4)ncn3)c2)cc(C(C)(C)C)cc1NS(C)(=O)=O [8(7), N-(5-tert-butyl-3-methanesulphonylamino-2-methoxy-phenyl)-4-methyl-3-[6-(3-oxo-piperazin-1-ylmethyl)-pyrimidin-4-yloxy]-benzamide]
98.9%	COc1c(NC(=O)c2ccc(C)c(Oc3ccnc(CN4CCN(C)CC4)c3)c2)cc(C(C)(C)C)cc1NS(C)(=O)=O [8(10), N-(5-tert-butyl-3-methanesulphonylamino-2-methoxy-phenyl)-4-methyl-3-[2-(4-methyl-piperazin-1-ylmethyl)-pyridin-4-yloxy]-benzamide]
97%	COc1c(NC(=O)c2ccc(C)c(Oc3ccnc(CN4CC[C@@H](O)C4)c3)c2)cc(C(C)(C)C)cc1NS(C)(=O)=O [8(12), (R)-N-(5-tert-butyl-3-methanesulphonylamino-2-methoxy-phenyl)-3-[2-(3-hydroxy-pyrrolidin-1-ylmethyl)-pyridin-4-yloxy]-4-methyl-benzamide]
98.7%	COc1c(NC(=O)c2ccc(C)c(Oc3ccnc(CN4CCCN(C)CC4)n3)c2)cc(C(C)(C)C)cc1NS(C)(=O)=O [8(16), N-(5-tert-butyl-3-methanesulphonylamino-2-methoxy-phenyl)-4-methyl-3-[2-(4-methyl-homopiperazin-1-ylmethyl)-pyrimidin-4-yloxy]-benzamide]
96.7%	COc1c(NC(=O)c2ccc(C)c(Oc3ccnc(CNC4CCN(C)CC4)n3)c2)cc(C(C)(C)C)cc1NS(C)(=O)=O [8(17), N-(5-tert-butyl-3-methanesulphonylamino-2-methoxy-phenyl)-4-methyl-3-{2-[(1-methyl-piperidin-4-ylamino)-methyl]-pyrimidin-4-yloxy}-benzamide]
98.3%	COc1c(NC(=O)c2ccc(C)c(Oc3ccnc(CN4CC[C@@H](N(C)C)C4)n3)c2)cc(C(C)(C)C)cc1NS(C)(=O)=O [8(22), (R)-N-(5-tert-butyl-3-methanesulphonylamino-2-methoxy-phenyl)-3-[2-(3-dimethylamino-pyrrolidin-1-ylmethyl)-pyrimidin-4-yloxy]-4-methyl-benzamide]
